The species entered for assay [1] is Homo sapiens. In words: Growth inhibition of HFLS isolated from rheumatoid arthritis patients after 48 hrs by WST-1 assay. It is filed as functional.
Assay [2] in a line: Induction of apoptosis in HFLS isolated from rheumatoid arthritis patients after 24 hrs using propidium iodide staining by flow cytometry relative to DNA content. It is filed as functional, Homo sapiens. A general note: In flow cytometry, cells or beads pass a laser one at a time.
Assay [3] is filed under the species Homo sapiens. The assay can be described thus: Induction of apoptosis in HFLS isolated from rheumatoid arthritis patients by TUNEL assay. It is filed as functional.
In another assay the test system is Mus musculus. The assay can be described thus: Antiarthritic activity in SKG mouse expressing human rheumatoid arthritis invasion of inflammatory cells assessed as reduction of laminarin-induced joint swelling at 135 mg/kg, iv administered 14 days after laminarin challenge every 2 days for 36 weeks. The format is functional, organism-based. Set-up: dose 135 mg/kg.

Activity calls are given as the source filed them. The calls are words filed in the database; no cut-off is given here.

Take `CCCCCCCCCCCCOCCOCCOCCOCCOCCOCCOCCOCCOCCOCCOCCOCCOCCOCCOCCOCCOCCOCCOCCOCCOCCO`: the “growth inhibition (GI)” value in the assay filed under Homo sapiens [1] was “Active”. Moreover, the Activity in assay [2] is on record as 20.9%. The result in the assay filed under Homo sapiens [3] was Active.

Take `CCCCCCCCCCCCOCCOCCOCCOCCOCCOCCOCCOCCOCCOCCOCCOCCOCCOCCOCCOCCOCCOCCOCCOCCOCCOCCOCCO`: in the assay filed under Homo sapiens [1], the “growth inhibition (GI)” value was “Active”. The compound further displayed an Activity in assay [2] of 24.8%. The outcome in the assay filed under Homo sapiens [3] and in the assay on Mus musculus was Active.

Consider `CCCCCCCCCCCCOCCOCCOCCOCCOCCOCCOCCOCCOCCOCCOCCOCCOCCOCCOCCOCCOCCOCCOCCOCCOCCOCCOCCOCCOCCO`, for which the “growth inhibition (GI)” value in the assay listed under Homo sapiens [1] was “Active”. Also, in assay [2], the Activity turned out to be 21.2%. The outcome in the assay listed under Homo sapiens [3] was Active.

Source of the values: ChEMBL document CHEMBL1641549, “Inhibitory effects of hybrid liposomes on the growth of synoviocyte causing rheumatoid arthritis” (2011).
